Assay results: patent US5137906A, “Treatment of central nervous system disorders with benzimidazole angiotensin-II receptor antagonists” (E. I. Du Pont de Nemours and Company, priority 1990, dated 1992)
“Also recorded” adds a separate entry of the source.

Experiments:
[1] = test system: renin-induced disruption of passive avoidance retention; experiment: renin-disrupted passive avoidance retention; assay type: in vivo, male Sprague-Dawley rats; details: for protection against / prevention of renin-induced amnesia: co-administered with renin IVT
Description: Experimentally naive male Sprague-Dawley rats 100 to 125 days old (Charles River Breeding Laboratories, Kingston, N.Y.), weighing between 175 to 200 gm were used. The animals were housed four per cage (45.0 L×20.0 H×26.0 W cm) with free access to food and water. They were maintained on a 12 h light/dark cycle (lights on 0600 h) and at a room temperature of 22°±1° C. with relative humidity of 50±10%.
The experimental sessions were conducted in a two-compartment passive avoidance box. One compartment, made of clear plastic with a perforated clear plastic floor, measured 21(L)×24.5(H)×17(W) cm and was illuminated with a 60 watt incandescent light bulb placed 36 cm above the floor. The other compartment, made of black plastic, measured 30.5 (L)×20.3 (H)×21.5 (W) cm with a floor made of 4 mm stainless steel rods spaced 1.2 cm apart. A grid floor shocker (Coulbourn Instruments) was connected to the steel rods and provided scrambled footshock. The two compartments were separated by a solenoid-operated slide door (Lafayette Instrument Co., Lafayette, Ind.). An electronic counter (Coulbourn Instruments), triggered by the opening or closing of the slide door, recorded acquisition and retention latencies (latencies were defined as the time it took an animal to enter the dark compartment).
Passive avoidance training began by placing the rat into the clear compartment of the two-compartment passive avoidance box. Following a 10 sec delay, the slide door for the dark compartment was raised. Once the rat moved completely into the dark compartment (all four paws on the shock grid floor) the slide door was lowered, and after a 10 sec. delay, a 1.0 mA shock was applied to the grid floor for three sec. A second three s shock was delivered after an additional 10 sec delay. The rats were immediately removed from the dark compartment and returned to their home cage. A retention test was given 24 h later. It proceeded in the same manner as the training session except that no shock was applied to the grid floor when the rats were provided access to the dark compartment for a maximum of 300 sec.
Doses are expressed as the free base weight of each compound.

avoidance learning = details: in words, cited from earlier work
[2] = test system: light/dark habituation performance; details: in words; subchronic treatment; cited from earlier work
[3] = test system: anticholinergic scopolamine-induced disruption of performance; details: in words; daily treatment; cited from earlier work
[4] = test system: passive avoidance (PA) response; details: in words; injected into dorsal neostriatum; cited from earlier work
[5] = test system: AII binding sites in the brain; experiment: binding of AII antagonists to sections of brain slices; details: in words
[6] = target: AII receptor subtype-1 (AII-1); details: cited from earlier work
[7] = target: AII receptor subtype-2 (AII-2); details: cited from earlier work
[8] = test system: release of ACh in entorhinal cortex from rat brain; details: in words; cited from earlier work
uphill avoidance = details: in words; 30 mg/kg PO, acute; cited from earlier work
[9] = test system: scopolamine-induced amnesia of a PA response; details: in words; 1, 3 and 10 mg/kg PO three times per day; cited from earlier work
[10] = test system: scopolamine-induced impairment of eight arm radial maze performance; details: in words; 3 mg/kg IP; cited from earlier work
[11] = test system: ACh in the striatum and hypothalamus; details: in words; acute or repeated administration; cited from earlier work
[12] = test system: AII in cerebrospinal fluid (CSF); details: after renin into lateral ventricle; increased from 40; cited from earlier work
[13] = compound 30 μg/5 μL IVT + renin 1.0 μg/5 μL IVT
[14] = compound 100 μg/5 μL IVT + renin 1.0 μg/5 μL IVT
[15] = compound 10 μg/5 μL IVT + renin 1.0 μg/5 μL IVT

## C[C@H](CS)C(=O)N1CCC[C@H]1C(=O)O [captopril]
[1]; in words, own laboratory, captopril IVT
  prevention of renin-induced amnesia in PA task by IVT captopril: prevented
Avoidance learning; IVT prior to renin injection
  effect on renin-induced avoidance disruption: prevented the renin-induced avoidance disruption
[2]
  rate of acquisition of light/dark habituation performance: increased the rate of acquisition
[3]
  effect on scopolamine-induced disruption of performance: prevented

## CCCc1nc(C(F)(F)F)c(CO)n1Cc1ccc(-c2ccccc2-c2nnn[nH]2)cc1 [Compound D, 2-n-propyl-5-hydroxymethyl-1-[(2'-(1H-tetrazol-5-yl)biphenyl-4-yl)methyl]-4-trifluoromethylimidazole]
[1]; [13]
  Median Retention Latency: 242 s
[1]; [14]
  Median Retention Latency: 10 s
[1]; in words
  protection against / prevention of renin-induced amnesia: protected against the amnesia

## NC(=O)[C@@H]1CCCN1C(=O)[C@H](Cc1cnc[nH]1)NC(=O)[C@@H]1CCC(=O)N1 [thyrotropin releasing hormone]
[4]
  effect on retention of a PA response: no effect

## Cc1cc(Cn2cnc3c2CC(C(=O)O)N(C(=O)C(c2ccccc2)c2ccccc2)C3)ccc1N (stereo not drawn) [EXP655, 1-(4-amino-3-methylphenyl)methyl-5-diphenylacetyl-4,5,6,7-tetrahydro-1H-imidazo[4,5-c]pyridine-6-carboxylic acid]
[5]
  sensitivity of the majority of AII binding sites in the brain (AII-2 receptors): EXP655-sensitive
[1]; compound 0.1 μg/5 μL IVT + renin 1.0 μg/5 μL IVT
  Median Retention Latency: 19 s
[1]; compound 0.3 μg/5 μL IVT + renin 1.0 μg/5 μL IVT
  Median Retention Latency: 22 s
[1]; compound 1.0 μg/5 μL IVT + renin 1.0 μg/5 μL IVT
  Median Retention Latency: 15 s
[1]; compound 3.0 μg/5 μL IVT + renin 1.0 μg/5 μL IVT
  Median Retention Latency: 29 s
[1]; [15]
  Median Retention Latency: 15 s
[1]; [13]
  Median Retention Latency: 67 s
[1]; [14]
  Median Retention Latency: 16 s
[1]; in words
  protection against / prevention of renin-induced amnesia: much less effective in preventing the amnesia
[6]; AII-1 site, rat adrenal cortex, Chiu et al. 1989, read-out: inhibitory constant IC50 value
  IC50: ~300 µM
[6]; in words, rat adrenal cortex
  affinity/specificity for the AII-1 site: very low affinity
[7]; AII-2 site, rat adrenal cortex, Chiu et al. 1989, read-out: inhibitory constant IC50 value
  IC50: ~0.1 µM

## [1-sarcosine, 8-threonine]angiotensin II
[8]
  antagonism of AII effect on ACh release: antagonized

## CCOC(=O)C(CCc1ccccc1)NC(C)C(=O)N1CC2(CC3CCC2CC3)CC1C(=O)O (stereo not drawn) [Hoe 288]
Uphill avoidance
  performance during retention testing, uphill avoidance: improved performance during retention testing
[9]
  effect on scopolamine-induced PA amnesia: partially reversed the amnesia
[10]
  effect on muscarinic receptor blockade impairment of performance: partially antagonized the effects of muscarinic receptor blockade on performance
[11]
  change in ACh in the striatum and hypothalamus: significant decrease in ACh in the striatum and hypothalamus

## Angiotensin II (DRVYIHPF; Angiotensin-2; UniProt P01019 25-32, looked up) [AII]
[4]
  effect on retention of a PA response: disruption in retention of a PA response
[8]
  effect on basal levels of ACh release: without effects on basal levels
  effect on potassium-stimulated release of ACh: reduced potassium-stimulated release of ACh

## O[C@H](CS)[C@H](O)CS (racemic) [DTT, dithiothreitol]
[5]; AII-1
  sensitivity of AII binding sites in the brain, minor clusters (AII-1 receptors): DTT-sensitive
[5]
  sensitivity of the majority of AII binding sites in the brain (AII-2 receptors): DTT-sensitive
[6]; in words
  inactivation of AII-1 receptor by DTT: particularly sensitive to inactivation
[7]; in words
  inactivation of AII-2 receptor by DTT: resistant

## lysine-8-vasopressin
[4]
  effect on retention of a PA response: no effect

## CCCc1nc(C(F)(F)F)c(C(=O)O)n1Cc1ccc(-c2ccccc2-c2nnn[nH]2)cc1 [Compound C, 2-n-propyl-1-[(2'-(1H-tetrazol-5-yl)biphenyl-4-yl)methyl]-4-trifluoromethylimidazole-5-carboxylic acid]
[1]; [15]
  Median Retention Latency: 264 s
[1]; [13]
  Median Retention Latency: 300 s
[1]; [14]
  Median Retention Latency: 34.5 s
[1]; in words
  protection against / prevention of renin-induced amnesia: protected against the amnesia

B1: renin: Renin (Sigma Chemicals), a stimulator of endogenous AII biosynthesis (protein, UniProt P00797 67-406, looked up)
Renin: LTLGNTTSSVILTNYMDTQYYGEIGIGTPPQTFKVVFDTGSSNVWVPSSKCSRLYTACVYHKLFDASDSSSYKHNGTELTLRYSTGTVSGFLSQDIITVGGITVTQMFGEVTEMPALPFMLAEFDGVVGMGFIEQAIGRVTPIFDNIISQGVLKEDVFSFYYNRDSENSQSLGGQIVLGGSDPQHYEGNFHYINLIKTGVWQIQMKGVSVGSSTLLCEDGCLALVDTGASYISGSTSSIEKLMEALGAKKRLFDYVVKCNEGPTLPDISFHLGGKEYTLTSADYVFQESYSSKKLCTLAIHAMDIPPPTGPTWALGATFIRKFYTEFDRRNNRIGFALAR
[1]; Table 1, renin 0.1 μg/5 μL IVT
  Median Retention Latency: 254 s
[1]; Table 1, renin 0.5 μg/5 μL IVT
  Median Retention Latency: 117 s
[1]; Table 1, renin 1.0 μg/5 μL IVT
  Median Retention Latency: 27 s
[1]; Table 1, renin 3.0 μg/5 μL IVT
  Median Retention Latency: 56.5 s
[1]; Table 1, renin 5.0 μg/5 μL IVT
  Median Retention Latency: 17 s
[1]; Table 2, renin 1.0 μg/5 μL IVT, Compound C 0 (renin-alone group)
  Median Retention Latency: 48 s
[1]; Table 3, renin 1.0 μg/5 μL IVT, Compound D 0 (renin-alone group)
  Median Retention Latency: 32 s
[1]; Table 4, renin 1.0 μg/5 μL IVT, EXP655 0 (renin-alone group)
  Median Retention Latency: 15.5 s
[1]; in words, renin IVT
  memory deficit / amnesia in PA task: produces a reliable memory deficit in rats; also recorded: dose-related amnesia
Avoidance learning; renin into lateral ventricle (IVT)
  effect on avoidance learning: disruption of avoidance learning
[12]
  AII in cerebrospinal fluid: about 5000 fmol per mL
